The structures appear in SMILES notation.

As to `CS(=O)(=O)N(c1ccc(CCCCNC(=N)NC(=O)c2nc(Cl)c(N)nc2N)cc1)S(C)(=O)=O` [Example 4, N-(3,5-Diamino-6-chloropyrazine-2-carbonyl)-N′-[4-(4-bis(methanesulfonyl)aminophenyl)butyl]guanidine], the melting point – broadly, the temperature of the solid-liquid transition – is 174 to 176 °C (dec.).
